This note sets out measurements from PubChem BioAssay (NCI).

Each structure is given as a SMILES string.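 Cells were grown in 96-well plates and exposed to each compound for 48 hours at five concentrations; endpoints were interpolated linearly between bracketing concentrations, or set to the highest concentration if not reached. GI50: concentration for 50% inhibition of growth. Definition used: TGI = concentration required for complete inhibition of growth.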

Test systems include HCT-15 colon; RXF 393 renal; HCC-2998 colon; HT29 colon; SN12C renal; SR leukemia; OVCAR-8 ovarian; M14 melanoma; MCF7 breast; OVCAR-3 ovarian.
What all share (experiment): NCI-60 cell line screen, 48 h

For `COC(=O)c1n[nH]c(C)c1N=NN(C)CCC#N`, the TGI with HCT-15 colon was found to be 32.1 µM; in the assay on RXF 393 renal, 29.7 µM; in the assay on HCC-2998 colon, 44.1 µM; with HT29 colon it was 87.8 µM; in the assay with SN12C renal, 33.8 µM; with SR leukemia it was 44.6 µM. In addition, the TGI in the assay with OVCAR-8 ovarian was 34.4 µM; in the assay on M14 melanoma, more than 100 µM; in the assay on MCF7 breast, 25.7 µM; in the assay on OVCAR-3 ovarian it was 42.2 µM.
Turning to `CC(C)(Br)C(=O)N1CCN(C(c2ccccc2)c2ccccc2)CC1`, the TGI in the assay with HCT-15 colon is more than 100 µM; in the assay with RXF 393 renal, 81.2 µM; in the assay on HCC-2998 colon, more than 100 µM; in the assay on HT29 colon, more than 100 µM; in the assay on SN12C renal, more than 100 µM; in the assay on SR leukemia, more than 100 µM. For the same molecule, the TGI with OVCAR-8 ovarian was more than 100 µM; with M14 melanoma, more than 100 µM; with MCF7 breast it was 81.8 µM; in the assay with OVCAR-3 ovarian it was 36.8 µM.
In the case of `Fc1cc2[nH]ncc2c2c3c(c(-c4cn[nH]c4C(F)(F)F)nc12)CCCC3`, the GI50 in the assay with HCT-15 colon is 2.79 µM; in the assay with RXF 393 renal, 1.08 µM; in the assay with HCC-2998 colon, 1.64 µM; with HT29 colon, 2.95 µM; in the assay on SN12C renal, 1.7 µM; in the assay on SR leukemia, 0.716 µM. Moreover, the GI50 in the assay on OVCAR-8 ovarian is 2.04 µM; in the assay on M14 melanoma it was 1.31 µM; in the assay on MCF7 breast it was 1.18 µM; in the assay on OVCAR-3 ovarian, 2.75 µM. The TGI was 15.2 µM in the assay with HCT-15 colon; 2.39 µM in the assay on RXF 393 renal; 4.99 µM in the assay with HCC-2998 colon; more than 100 µM in the assay on HT29 colon; 8.63 µM in the assay with SN12C renal; 5.87 µM with SR leukemia. Further, the TGI was more than 100 µM in the assay on OVCAR-8 ovarian, 4.12 µM in the assay with M14 melanoma, more than 100 µM in the assay with MCF7 breast and more than 100 µM in the assay with OVCAR-3 ovarian.
As for `CC(C)c1[nH]nc(C(N)=O)c1N=NN(C)C`, the TGI in the assay on HCT-15 colon is more than 100 µM; in the assay with RXF 393 renal, more than 100 µM; in the assay with HCC-2998 colon, more than 100 µM; with HT29 colon, more than 100 µM; in the assay with SN12C renal, more than 100 µM; with SR leukemia, 71.2 µM. For the same molecule, the TGI with OVCAR-8 ovarian, in the assay with M14 melanoma, in the assay on MCF7 breast and in the assay with OVCAR-3 ovarian was more than 100 µM each time.
For `CC(N)C(Cc1ccc(Cl)cc1)c1ccc(Cl)cc1` (centres undefined), the GI50 in the assay with HCT-15 colon was 4.15 µM; with RXF 393 renal, 11.7 µM; in the assay with HCC-2998 colon, 1.96 µM; in the assay with HT29 colon, 3.29 µM; in the assay on SN12C renal it was 11.4 µM; in the assay with OVCAR-8 ovarian, 20.4 µM. Moreover, the GI50 was 5.53 µM in the assay with M14 melanoma, 2.99 µM with MCF7 breast and 13.8 µM with OVCAR-3 ovarian. In addition, the TGI in the assay with HCT-15 colon was determined as 17.5 µM; in the assay with RXF 393 renal, 25.5 µM; with HCC-2998 colon it was 4.11 µM; with HT29 colon it was 13.6 µM; in the assay with SN12C renal it was 26.7 µM; with OVCAR-8 ovarian, 52.8 µM. The TGI was found to be 18.9 µM in the assay with M14 melanoma, 12.5 µM in the assay with MCF7 breast and 27.5 µM in the assay with OVCAR-3 ovarian.
For `CCCCCCCCCCCCOC1C(CNC(=O)C2OC3OC(C)(C)OC3C2NC(=O)Nc2ccc(CC(=O)OC)cc2)OC2OC(C)(C)OC21` (centres undefined), the GI50 in the assay with HCT-15 colon, with HCC-2998 colon, in the assay with HT29 colon, in the assay with SN12C renal, in the assay with SR leukemia and in the assay with OVCAR-8 ovarian was more than 100 µM in each case. The GI50 is 22.7 µM in the assay on M14 melanoma, more than 100 µM with MCF7 breast and more than 100 µM with OVCAR-3 ovarian. For the same molecule, the TGI with HCT-15 colon, with HCC-2998 colon, with HT29 colon, in the assay with SN12C renal, in the assay on SR leukemia and in the assay with OVCAR-8 ovarian was more than 100 µM each time. The TGI with M14 melanoma, in the assay with MCF7 breast and in the assay on OVCAR-3 ovarian was more than 100 µM in each case.
In the case of `COc1ccc(C(c2cc(OC)c(OC)c(OC)c2)n2ccnc2)cc1O` (centres undefined), the GI50 in the assay with HCT-15 colon is 0.464 µM; in the assay on HCC-2998 colon it was 1.72 µM; in the assay on HT29 colon it was 0.312 µM; with SN12C renal, 0.91 µM; with SR leukemia, 0.182 µM; in the assay on M14 melanoma it was 0.18 µM. For the same molecule, the GI50 in the assay on MCF7 breast is 0.339 µM; with OVCAR-3 ovarian, 0.264 µM. For the same molecule, the TGI in the assay on HCT-15 colon was more than 100 µM; in the assay with HCC-2998 colon it was more than 100 µM; in the assay with HT29 colon, 1.02 µM; in the assay with SN12C renal it was more than 100 µM; with SR leukemia it was more than 100 µM; with M14 melanoma, 0.646 µM. Moreover, the TGI in the assay with MCF7 breast was more than 100 µM; with OVCAR-3 ovarian, 0.857 µM.
Regarding `Cc1cc(O)c(=O)cc2c1C[C@H]1CC(C)(C)/C=C/C[C@]3(C)Oc4cc(=O)c(O)cc(C)c4C[C@H]3C[C@H](O)[C@@]1(C)O2`, the GI50 in the assay with HCT-15 colon is less than 0.01 µM; with HCC-2998 colon, less than 0.0149 µM; with HT29 colon it was less than 0.01 µM; with SN12C renal, less than 0.0133 µM; in the assay with SR leukemia, less than 0.0115 µM; with OVCAR-8 ovarian, less than 0.01 µM. Besides, the GI50 with M14 melanoma was 0.0266 µM; in the assay on MCF7 breast, less than 0.01 µM; with OVCAR-3 ovarian it was less than 0.01 µM. The TGI with HCT-15 colon is more than 100 µM; with HCC-2998 colon it was more than 100 µM; in the assay with HT29 colon, more than 100 µM; in the assay with SN12C renal, more than 29.2 µM; in the assay with SR leukemia it was 0.591 µM; in the assay with OVCAR-8 ovarian it was 11.6 µM. Moreover, the figures for the TGI in the assay on M14 melanoma, in the assay with MCF7 breast and with OVCAR-3 ovarian were 19.7 µM, more than 100 µM and 19.6 µM, respectively.
For `COc1ccc(/C=C(/C#N)C(N)=O)c(OC)c1`, the TGI in the assay on HCT-15 colon, in the assay with RXF 393 renal, in the assay on HT29 colon, in the assay on SN12C renal, in the assay with SR leukemia and in the assay with OVCAR-8 ovarian was more than 100 µM in each case. Also, the TGI in the assay with M14 melanoma, with MCF7 breast and in the assay on OVCAR-3 ovarian was more than 100 µM each time.
